What is called pIC50 is −log10 of the IC50, conventionally taken in molar units.

pIC50: −log10 of the molar value. Some results are limits rather than exact numbers.

Holding throughout (type): binding
One assay has as its target TEAD4 (Homo sapiens, UniProt Q15561). The assay can be described thus: Lipid HTRF (TR-FRET lipid pocket probe competition), 30 min pre-incubation, TEAD4. Particulars: His-tagged TEAD4, 30 minutes pre-incubation with compound at room temperature; read-out: Lipid HTRF TEAD4 IC50. How it is done: (§1) His-tagged TEAD proteins are pre-incubated with TEAD project compounds for 30 minutes at room temperature. Biotinylated lipid pocket probes are then added to the TEAD/Compound mixture and incubated for 60 minutes at room temperature. The lipid pocket probe competes with the test compound for the TEAD lipid pocket until equilibrium is reached. After 60 minutes, Europium labelled anti-His (Perkin Elmer #AD0110) and XL665 labelled streptavidin (CIS Bio 610SAXAC) are added to the TEAD/test compound/lipid pocket mixture and incubated for 30 minutes. […] If a TEAD lipid pocket binder such as binds and displaces the lipid pocket probe, the disruption of the TEAD:probe interaction results in a decrease in TR-FRET signal. The potency of compounds as TEAD lipid pocket binders is determined by IC50 value generated using a non-linear 4 parameter curve fit.
For orientation: In TR-FRET formats the signal depends on donor and acceptor labels being close together.

The target in the next assay is TEAD3 (Homo sapiens, UniProt Q99594). Briefly: Lipid HTRF (TR-FRET lipid pocket probe competition), 30 min pre-incubation, TEAD3. Particulars: His-tagged TEAD3, 30 minutes pre-incubation with compound at room temperature; read-out: Lipid HTRF TEAD3 IC50. As to the method:
as §1

In the next assay the target is TEAD2 (Homo sapiens, UniProt Q15562). The assay can be described thus: Lipid HTRF (TR-FRET lipid pocket probe competition), 30 min pre-incubation, TEAD2. The settings on record: His-tagged TEAD2, 30 minutes pre-incubation with compound at room temperature; read-out: Lipid HTRF TEAD2 IC50. As to the method:
as §1

The target in a further assay is TEAD1 (Homo sapiens, UniProt P28347). The assay can be described thus: Lipid HTRF (TR-FRET lipid pocket probe competition), 30 min pre-incubation, TEAD1. Particulars: His-tagged TEAD1, 30 minutes pre-incubation with compound at room temperature; read-out: Lipid HTRF TEAD1 IC50. How it is done:
as §1

TEAD2, sequence (Q15562 whole entry, species assumed): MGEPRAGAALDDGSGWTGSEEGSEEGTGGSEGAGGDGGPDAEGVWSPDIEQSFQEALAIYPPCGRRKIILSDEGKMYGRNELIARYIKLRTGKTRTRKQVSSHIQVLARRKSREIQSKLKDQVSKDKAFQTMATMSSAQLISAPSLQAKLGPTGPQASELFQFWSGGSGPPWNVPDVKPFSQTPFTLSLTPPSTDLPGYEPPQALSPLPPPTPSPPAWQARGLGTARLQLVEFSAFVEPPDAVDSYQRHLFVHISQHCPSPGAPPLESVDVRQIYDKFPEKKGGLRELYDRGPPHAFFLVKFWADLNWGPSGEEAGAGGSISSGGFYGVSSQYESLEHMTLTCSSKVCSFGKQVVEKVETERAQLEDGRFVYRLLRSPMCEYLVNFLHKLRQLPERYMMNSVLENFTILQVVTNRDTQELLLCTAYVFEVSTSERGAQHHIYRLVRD
TEAD1, sequence (P28347 whole entry, species assumed): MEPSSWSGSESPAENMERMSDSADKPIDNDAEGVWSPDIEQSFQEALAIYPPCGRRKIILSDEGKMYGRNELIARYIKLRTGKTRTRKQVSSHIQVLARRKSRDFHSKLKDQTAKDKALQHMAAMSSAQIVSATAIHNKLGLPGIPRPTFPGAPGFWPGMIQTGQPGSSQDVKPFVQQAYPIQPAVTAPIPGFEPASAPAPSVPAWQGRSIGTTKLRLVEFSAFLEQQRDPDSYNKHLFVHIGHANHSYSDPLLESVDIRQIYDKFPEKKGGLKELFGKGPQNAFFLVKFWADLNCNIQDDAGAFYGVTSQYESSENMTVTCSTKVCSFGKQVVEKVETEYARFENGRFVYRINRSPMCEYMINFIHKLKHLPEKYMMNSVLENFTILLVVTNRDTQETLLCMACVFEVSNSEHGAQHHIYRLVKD
TEAD4, sequence (Q15561 whole entry, species assumed): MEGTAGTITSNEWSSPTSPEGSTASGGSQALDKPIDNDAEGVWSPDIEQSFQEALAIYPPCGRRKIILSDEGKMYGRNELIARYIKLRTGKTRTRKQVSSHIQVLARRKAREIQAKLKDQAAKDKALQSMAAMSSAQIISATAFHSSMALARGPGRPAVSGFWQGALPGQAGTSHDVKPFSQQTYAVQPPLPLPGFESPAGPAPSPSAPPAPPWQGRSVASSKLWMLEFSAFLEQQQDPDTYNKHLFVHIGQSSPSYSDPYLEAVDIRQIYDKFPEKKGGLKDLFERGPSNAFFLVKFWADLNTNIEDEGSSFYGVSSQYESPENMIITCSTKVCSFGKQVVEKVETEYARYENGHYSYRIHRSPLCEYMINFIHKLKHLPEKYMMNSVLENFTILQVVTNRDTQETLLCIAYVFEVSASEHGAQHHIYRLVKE
TEAD3, sequence (Q99594 whole entry, species assumed): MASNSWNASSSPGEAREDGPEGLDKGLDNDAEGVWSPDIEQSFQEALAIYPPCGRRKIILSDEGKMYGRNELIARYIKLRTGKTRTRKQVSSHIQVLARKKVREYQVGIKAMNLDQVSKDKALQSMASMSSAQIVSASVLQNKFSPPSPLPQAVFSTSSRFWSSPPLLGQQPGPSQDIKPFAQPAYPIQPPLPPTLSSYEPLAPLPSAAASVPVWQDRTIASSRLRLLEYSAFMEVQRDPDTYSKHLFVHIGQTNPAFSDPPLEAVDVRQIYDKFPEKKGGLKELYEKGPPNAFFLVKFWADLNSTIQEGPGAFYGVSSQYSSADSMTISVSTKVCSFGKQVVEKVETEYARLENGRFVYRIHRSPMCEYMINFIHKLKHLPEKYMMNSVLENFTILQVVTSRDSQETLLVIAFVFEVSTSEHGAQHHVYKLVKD

As to `C=CC(=O)Nc1cnc(OC)c(COC2CCC(F)(F)CC2)c1` [Final product from Example 10, N-(5-(((4,4-difluorocyclohexyl)oxy)methyl)-6-methoxypyridin-3-yl)acrylamide], the negative logarithm of the IC50 (pIC50) at TEAD4 was 4.77; at TEAD3, 5.08; at TEAD2 it was 5.20; at TEAD1, 5.82.

Consider `C=CC(=O)Nc1cnc(OC)c(COC2CC3(CC3)C2)c1` [Final product from Example 11, N-(6-Methoxy-5-((spiro[2.3]hexan-5-yloxy)methyl)pyridin-3-yl)acrylamide], for which the pIC50 was 5.24 at TEAD4, 5.44 at TEAD3, 5.76 at TEAD2 and 5.92 at TEAD1.

Regarding `C=CC(=O)Nc1cc(/C=C/[C@H]2CC[C@H](C(F)(F)F)CC2)c(OC)c(C2CC2)n1` [Final product from Example 12, N-(6-Cyclopropyl-5-methoxy-4-((E)-2-(trans-4-(trifluoromethyl)cyclohexyl)vinyl)pyridin-2-yl)acrylamide], the pIC50 at TEAD4 was 6.40; at TEAD3, 5.61; at TEAD2, 5.98; at TEAD1, 6.23.

Consider `C=CC(=O)Nc1cc(/C=C/[C@H]2CC[C@H](C(F)(F)F)CC2)c(OC)nc1C#N` [Final product from Example 13, N-(2-Cyano-6-methoxy-5-((E)-2-(trans-4-(trifluoromethyl)cyclohexyl)vinyl)pyridin-3-yl)acrylamide], for which the pIC50 is 7.52 on TEAD4, 6.48 at TEAD3, 6.77 at TEAD2 and 6.92 on TEAD1.

Consider `C=CC(=O)Nc1ccc(OC)c(/C=C/CC2CCCC2)c1` [Final product from Example 14, (E)-N-(3-(3-cyclopentylprop-1-en-1-yl)-4-methoxyphenyl)acrylamide], for which the negative logarithm of the IC50 (pIC50) at TEAD4 was 7.15; at TEAD3, 7.22; on TEAD2, 7.52; on TEAD1 it was 7.40.

Take `C=CC(=O)N(CCO)c1cc(/C=C/[C@H]2CC[C@H](C(F)(F)F)CC2)c(OC)cn1` [Final product from Example 15, N-(2-Hydroxyethyl)-N-(5-methoxy-4-((E)-2-(trans-4-(trifluoromethyl)cyclohexyl)vinyl)pyridin-2-yl)acrylamide]: the pIC50 at TEAD4 is 6.47; at TEAD3, 5.39; on TEAD2, 6.14; on TEAD1, 5.66.

In the case of `C=CC(=O)Nc1cc(-c2ccc(C(C)C)cc2)c(OC)cc1F` [Final product from Example 16, N-(4-fluoro-4′-isopropyl-6-methoxy-[1,1′-biphenyl]-3-yl)acrylamide], the negative logarithm of the IC50 (pIC50) at TEAD4 is 6.55; on TEAD3, 7.05; on TEAD2, 6.27; at TEAD1 it was 6.85.

Regarding `C=CC(=O)Nc1cc(/C=C/c2ccc(Cl)cc2)c2c(c1)CCO2` [Final product from Example 17, (E)-N-(7-(4-chlorostyryl)-2,3-dihydrobenzofuran-5-yl)acrylamide], the pIC50 is 6.33 on TEAD4, 5.28 on TEAD3, 5.89 on TEAD2 and 6.15 at TEAD1.

For `C=CC(=O)Nc1cnc(OC)c(/C=C/CC(C)C)c1` [Final product from Example 18, (E)-N-(6-methoxy-5-(4-methylpent-1-en-1-yl)pyridin-3-yl)acrylamide], the pIC50 was 6.12 on TEAD4, 6.37 at TEAD3, 6.68 at TEAD2 and 6.66 on TEAD1.

In the case of `C=CC(=O)Nc1cnc(OC)c(/C=C/C2CC(F)(F)C2)c1` [Final product from Example 19, (E)-N-(5-(2-(3,3-difluorocyclobutyl)vinyl)-6-methoxypyridin-3-yl)acrylamide], the negative-log IC50 (pIC50) was 5.24 at TEAD4, 5.50 on TEAD3, 5.59 on TEAD2 and 5.87 at TEAD1.

As for `C=C(C(=O)Nc1cnc(OC)c(/C=C/C2CCC(F)(F)CC2)c1)c1ccccc1` [Final product from Example 20, (E)-N-(5-(2-(4,4-Difluorocyclohexyl)vinyl)-6-methoxypyridin-3-yl)-2-phenylacrylamide], the pIC50 was 7.40 at TEAD4, 6.39 at TEAD3, 6.27 on TEAD2 and 6.92 at TEAD1.

Regarding `COc1ncc(NC(=O)/C=C/C#N)cc1/C=C/C1CCC(F)(F)CC1` [Final product from Example 21, (E)-3-cyano-N-(5-((E)-2-(4,4-difluorocyclohexyl)vinyl)-6-methoxypyridin-3-yl)acrylamide], the negative logarithm of the IC50 (pIC50) on TEAD4 is 7.22; at TEAD3, 6.80; at TEAD2 it was 6.44; on TEAD1, 7.10.

As for `C=CC(=O)Nc1ccc(OC)c(/C=C/[C@H]2CC[C@H](C(F)(F)F)CC2)c1` [Final product from Example 22, N-(4-Methoxy-3-((E)-2-(trans-4-(trifluoromethyl)cyclohexyl)vinyl)phenyl)acrylamide], the negative-log IC50 (pIC50) is 6.92 at TEAD4, 6.35 on TEAD3, 6.60 on TEAD2 and 6.72 on TEAD1.

`C=CC(=O)Nc1ccc(OC)c(/C=C/C2CCC(F)(F)CC2)c1` [Final product from Example 23, (E)-N-(3-(2-(4,4-Difluorocyclohexyl)vinyl)-4-methoxyphenyl)acrylamide]: the negative logarithm of the IC50 (pIC50) is 6.77 on TEAD4, 7.10 at TEAD3, 6.39 at TEAD2 and 7.30 at TEAD1.

`C=CC(=O)Nc1cc(/C=C/[C@H]2CC[C@H](C(F)(F)F)CC2)c(OC)nc1-c1ccccc1` [Final product from Example 24, N-(6-Methoxy-2-phenyl-5-((E)-2-(trans-4-(trifluoromethyl)cyclohexyl)vinyl)pyridin-3-yl)acrylamide]: the pIC50 on TEAD4 was 6.25; on TEAD3, less than 4.30; on TEAD2 it was 6.68; at TEAD1, 5.80.

For `C=CC(=O)Nc1cc(/C=C/[C@H]2CC[C@H](C(F)(F)F)CC2)c(OC)nc1CO` [Final product from Example 25, N-(2-(Hydroxymethyl)-6-methoxy-5-((E)-2-(trans-4-(trifluoromethyl)cyclohexyl)vinyl)pyridin-3-yl)acrylamide], the pIC50 at TEAD4 is 7.40; at TEAD3, 6.44; at TEAD2, 8.00; on TEAD1, 7.40.

`C=CC(=O)Nc1cc(/C=C/[C@H]2CC[C@H](C(F)(F)F)CC2)c(OC)nc1OC` [Final product from Example 26, N-(2,6-Dimethoxy-5-((E)-2-(trans-4-(trifluoromethyl)cyclohexyl)vinyl)pyridin-3-yl)acrylamide]: the pIC50 was 7.10 at TEAD4, 6.00 on TEAD3, 6.82 at TEAD2 and 6.62 on TEAD1.

Take `C=CC(=O)Nc1ncc(OC)c(/C=C/C2CCC(F)(F)CC2)n1` [Final product from Example 27, (E)-N-(4-(2-(4,4-Difluorocyclohexyl)vinyl)-5-methoxypyrimidin-2-yl)acrylamide]: the negative-log IC50 (pIC50) on TEAD4 is 7.15; on TEAD3, 6.80; at TEAD2, 6.28; at TEAD1, 6.70.

The values above are taken from patent publication US20220281819A1, “THERAPEUTIC COMPOUNDS AND METHODS OF USE” (priority 2020, published 2022).
